Laboratory results taken from patent US8173376B2, “Method for identifying compounds for treatment of pain” (Universite Laval, priority 2003, dated 2012).
“Also recorded” adds a separate entry of the source.

Key:
Sprague-Dawley rats [1] = test: Tactile/mechanical nociceptive withdrawal threshold (von Frey) after intrathecal delivery; assay type: in vivo, rat; details: for Nociceptive threshold for mechanical stimulation: intrathecal, 10 μg/day x 6 days
KCC2 = test: Immunoblot of spinal KCC2 protein after intrathecal oligodeoxynucleotide treatment; assay type: in vivo, rat; details: naïve rats, antisense 12 h or 36 h
lamina I (LI) neurons = test: Calcium imaging (fura-2-AM) of GABA-evoked [Ca2+]i rise in lamina I neurons in spinal cord slices; assay type: cell-based, rat
GlyRs and GABAARs = test: Whole-cell recording of miniature postsynaptic currents (mPSCs) and GABA-evoked responses in LI neurons; assay type: cell-based, rat; details: LI neuron, p>0.5
Sprague-Dawley rats [2] = test: Thermal nociceptive withdrawal latency after intrathecal injection; assay type: in vivo, rat; details: intact naïve rats, DIOA 15-30 μg intrathecal
lamina I neurons = test: Anion reversal potential (Eanion) by gramicidin-D perforated-patch voltage-clamp recording in dorsal horn slices; assay type: cell-based, rat
Sprague-Dawley rats [3] = details: intrathecal, at the doses used
[4] = tested on: voltage sensitive Ca2+ channels (VSCCs) and NMDA receptor/channels; details: cited from earlier work; for Efficacy in the treatment of neuropathic pain: humans
[5] = lamina I neurons from naïve rats, 50 ng/ml in bath

5′-TCTCCTTGGGATTGCCGTCA-3′ (DNA, all phosphorothioate, methylation of C not given here) [KCC2 antisense oligodeoxynucleotide]
Tactile nociceptive withdrawal threshold (Sprague-Dawley rats [1]; naïve rats, intrathecal antisense each 12 h (0 h, 12 h, 24 h), vs scrambled oligodeoxynucleotide): significant decrease
Spinal KCC2 protein levels (immunoblots) (KCC2): Decrease

CCCCC1(C2CCCC2)Cc2cc(OCC(=O)O)c(Cl)c(Cl)c2C1=O (stereo not shown) [DIOA]
LI neurons showing an increase in [Ca2+]i on GABA application (lamina I (LI) neurons; naïve rat spinal slices, bath applied DIOA 30 μM): 30%
Proportion of LI neurons displaying a GABA-evoked increase in [Ca2+]i (in words) (lamina I (LI) neurons; naïve rats, in the presence of DIOA, χ2 corrected=4.43): significantly higher
Nociceptive threshold to mechanical stimuli (Sprague-Dawley rats [1]; intact naïve rats, DIOA 15-30 μg intrathecal): rapid and reversible decrease
Effect on peak conductance of synaptic events (mPSCs) (GlyRs and GABAARs; CsCl pipette, Eanion clamped at 0 mV, n=4 neurons x 50 mPSCs): neither affected
Effect on GABA-evoked responses (GlyRs and GABAARs; n=5): neither affected
Nociceptive threshold to thermal stimuli (withdrawal latency) (Sprague-Dawley rats [2]): rapid and reversible decrease

O=S(=O)(NCCNC/C=C/c1ccc(Br)cc1)c1cccc2cnccc12 [H-89]
Nociceptive threshold to mechanical stimulation (Sprague-Dawley rats [1]; H-89 380 nmol local spinal delivery, vs vehicle): increase
Change of Eanion (lamina I neurons; lamina I neurons from PNI rats, H-89 15 in bath): significant hyperpolarization

COC(=O)[C@@]1(O)C[C@H]2O[C@]1(C)n1c3ccccc3c3c4c(c5c6ccccc6n2c5c31)C(=O)NC4 [K-252a]
Threshold for tactile nociceptive withdrawal (Sprague-Dawley rats [1]; PNI rats, K-252a 6 nM intrathecal, vs vehicle): increase
Motor disturbances or sedation (Sprague-Dawley rats [3]): did not produce any motor disturbances or sedation
Change of Eanion (lamina I neurons; lamina I neurons from PNI rats, K-252a 200 nM in bath): hyperpolarization of the Eanion to a level similar to that observed in lamina I neurons taken from naïve rats; also recorded: significant hyperpolarization

NCC1(CC(=O)O)CCCCC1 [gabapentin]
Efficacy in the treatment of neuropathic pain [4]: highly efficacious

CNC1(c2ccccc2Cl)CCCCC1=O (stereo not shown) [ketamine]
Efficacy in the treatment of neuropathic pain [4]: highly efficacious
Side effects ([4]; use of Ca2+ channel blockers / NMDA antagonists): many undesirable side effects

NC1=N[C@H](O)[C@H]2[C@H]3O[C@]4(O)O[C@@H]([C@@H](O)[C@@]2(N1)[C@@H]4O)[C@]3(O)CO [tetrodotoxin]
Block of GABA-evoked [Ca2+]i responses (lamina I (LI) neurons): blocked

KN-93
Change of Eanion (lamina I neurons; lamina I neurons from PNI rats, KN-93 5 μM in bath): significant hyperpolarization

NGF: nerve growth factor, activator of TrkA, bath applied
Change of Eanion (lamina I neurons; [5]): significantly depolarized; also recorded: significant depolarization

human recombinant NGF: human recombinant NGF for intrathecal delivery
Nociceptive threshold for mechanical stimulation (Sprague-Dawley rats [1]; naïve rats): very similar decrease

B1: BDNF: brain-derived neurotrophic factor, activator of TrkB, bath applied (protein, UniProt P23560 19-247, looked up)
Neurotrophic factor BDNF …: APMKEANIRGQGGLAYPGVRTHGTLESVNGPKAGSRGLTSLADTFEHVIEELLDEDQKVRPNEENNKDADLYTSRVMLSSQVPLEPPLLFLLEEYKNYLDAANMSMRVRRHSDPARRGELSVCDSISEWVTAADKKTAVDMSGGTVTVLEKVPVSKGQLKQYFYETKCNPMGYTKEGCRGIDKRHWNSQCRTTQSYVRALTMDSKKRIGWRFIRIDTSCVCTLTIKRGR
Change of Eanion (lamina I neurons; [5]): significantly depolarized; also recorded: significant depolarization

B2: human recombinant BDNF: human recombinant BDNF for local spinal delivery (protein, UniProt P23560 19-247, looked up)
Neurotrophic factor BDNF …: B1 Neurotrophic factor BDNF …
Nociceptive threshold for mechanical stimulation (Sprague-Dawley rats [1]; naïve rats): significant decrease
